Laboratory results as given in patent US20230389542A1, “USE OF [(1,5-DIPHENYL-1H-PYRAZOL-3-YL)OXY] ACETIC ACID DERIVATIVES AND THEIR SALTS AND COMPOSITIONS CONTAINING THEM, FOR REDUCING PHYTOTOXIC EFFECTS OF AGROCHEMICALS, IN PARTICULAR OF HERBICIDES, IN USEFUL PLANTS AND CROP PLANTS” (BAYER AKTIENGESELLSCHAFT, priority 2020, published 2023).

Tests used:
[1] = test system: summer wheat (TRZAS; cv. Triso); assay: Relative action (efficacy code): reduction of damage by mesosulfuron-methyl on summer wheat; format: in vivo; design: key: 0: no reduction in damage (appearance corresponding to the herbicide control); 1: slight reduction in damage; 2: distinct reduction in damage; 3: significant reduction in damage; 4: complete reduction in damage (appearance corresponding to the untreated control); details: visual, 9-13 days after application
Description: 2.3 Relative Action of Selected Compounds of the Invention Using the Example of Reduction of Damage by Mesosulfuron-Methyl on Summer Wheat (TRZAS) The seeds of the crop plants to be treated are laid out in sandy loam in plastic pots (diameter μ4 cm), covered with soil and grown in a greenhouse under good conditions for germination and growth. The trial plants were treated at the early leaf stage (BBCH10-BBCH12). In the course of this, the inventive compounds of the general formula (I) formulated in the form of wettable powders (WP) were sprayed onto the above-ground parts of the plants as an aqueous suspension with a water application rate corresponding to 800 l/ha with addition of wetting agent (e.g. 0.2% Genapol-LRO or 0.2% Mero) in the specified dose. This was followed by the application of the herbicide. For this purpose, mesosulfuron-methyl, formulated in the form of water-dispersible granules (WG), was sprayed onto the above-ground parts of the plants in the form of an aqueous dispersion with a water application rate corresponding to 800 l/ha with addition of wetting agent (e.g. 0.2% Genapol-LRO or 1 l/ha Biopower) in a dose of 40-60 g/ha. The dose of the herbicide was chosen here such that it causes visually apparent damage (min. 30%, max. 75%) compared to untreated crop plants at the evaluation time on a control group of crop plants without safener treatment that were included in the same trial. After application, the plants were cultivated under good growth conditions in a greenhouse. 9-13 days after application, the efficacy of the test compounds was assessed visually. For this purpose, the appearance of the plants treated with the test compound and herbicide was compared to the corresponding herbicide controls (without safener; with clearly visible damage) and the untreated controls (without damage). The damage-reducing effect of the test compounds was expressed here in graded efficacy codes according to the following scheme: • 0: no reduction in damage (appearance corresponding to the herbicide control) • 1: slight reduction in damage • 2: distinct reduction in damage • 3: significant reduction in damage • 4: complete reduction in damage (appearance corresponding to the untreated control) The trials show clear efficacy of the inventive compounds selected by way of example with regard to the reduction in damage to the summer wheat crop plant (TRZAS; cv. Triso) caused by the herbicide mesosulfuron-methyl: […]

[2] = test system: summer barley (HORVS; cv. Montoya); assay: Relative action (efficacy code): reduction of damage by mesosulfuron-methyl on summer barley; format: in vivo; design: key: 0: no reduction in damage (appearance corresponding to the herbicide control); 1: slight reduction in damage; 2: distinct reduction in damage; 3: significant reduction in damage; 4: complete reduction in damage (appearance corresponding to the untreated control); details: visual, 9-13 days after application, 2 repeats coded separately
Description: 2.4 Relative Action of Selected Compounds of the Invention Using the Example of Reduction of Damage by Mesosulfuron-Methyl on Summer Barley (HORVS) The seeds of the crop plants to be treated are laid out in sandy loam in plastic pots (diameter˜4 cm), covered with soil and grown in a greenhouse under good conditions for germination and growth. The trial plants were treated at the early leaf stage (BBCH10-BBCH12). In the course of this, the inventive compounds of the general formula (I) formulated in the form of wettable powders (WP) were sprayed onto the above-ground parts of the plants as an aqueous suspension with a water application rate corresponding to 800 l/ha with addition of wetting agent (e.g. 0.2% Genapol-LRO or 0.2% Mero) in the specified dose. This was followed by the application of the herbicide. For this purpose, mesosulfuron-methyl, formulated in the form of water-dispersible granules (WG), was sprayed onto the above-ground parts of the plants in the form of an aqueous dispersion with a water application rate corresponding to 800 l/ha with addition of wetting agent (e.g. 0.2% Genapol-LRO or 1 l/ha Biopower) in a dose of 40-60 g/ha. The dose of the herbicide was chosen here such that it causes visually apparent damage (min. 30%, max. 75%) compared to untreated crop plants at the evaluation time on a control group of crop plants without safener treatment that were included in the same trial. After application, the plants were cultivated under good growth conditions in a greenhouse. 9-13 days after application, the efficacy of the test compounds was assessed visually. For this purpose, the appearance of the plants treated with the test compound and herbicide was compared to the corresponding herbicide controls (without safener; with clearly visible damage) and the untreated controls (without damage). The damage-reducing effect of the test compounds was expressed here separately for 2 repeats in graded efficacy codes according to the following scheme: • 0: no reduction in damage (appearance corresponding to the herbicide control) • 1: slight reduction in damage • 2: distinct reduction in damage • 3: significant reduction in damage • 4: complete reduction in damage (appearance corresponding to the untreated control) The trials show clear efficacy of the inventive compounds selected by way of example with regard to the reduction in damage to the summer barley crop plant (HORVS; cv. Montoya) caused by the herbicide mesosulfuron-methyl: […]

[3] = safener 100 g/ha + mesosulfuron-methyl 40-60 g/ha
[4] = safener 500 g/ha + mesosulfuron-methyl 40-60 g/ha

Structure (SMILES)	Efficacy of the safener (efficacy code) [1, 3]	Efficacy of the safener (efficacy code) [1, 4]	Efficacy of the safener (efficacy code) [2, 4]	Efficacy of the safener (efficacy code) [2, 3]
CCOC(=O)COc1cc(-c2ccc(F)cc2)n(-c2ccc(Cl)cc2Cl)n1 [I.11-32]	2	2	2	–
COC(=O)COc1cc(-c2ccc(F)cc2F)n(-c2ccc(Cl)cc2F)n1 [I.40-49]	3	3	2-3	2
CCOC(=O)COc1cc(-c2ccc(F)cc2F)n(-c2ccc(Cl)cc2F)n1 [I.41-49]	3	4	2	2
O=C(O)COc1cc(-c2ccc(F)cc2F)n(-c2ccc(Cl)cc2F)n1 [I.42-49]	3	4	3	2-3
CCOC(=O)COc1cc(-c2ccc(Cl)cc2F)n(-c2ccc(F)cc2Cl)n1 [I.47-48]	3	4	3	2
CCOC(=O)COc1cc(-c2ccc(Cl)cc2F)n(-c2ccc(Cl)cc2F)n1 [I.47-49]	–	3	3	2
CCOC(=O)COc1cc(-c2ccc(F)cc2Cl)n(-c2ccc(Cl)cc2F)n1 [I.50-49]	2	3	3	2-3
